1 compound from BindingDB's records for doi:10.7270/Q2639NCQ (The Scripps Research Institute Molecular Screening Center, 2013) can be followed below.

This assay addresses T1, Mitochondrial peptide methionine sulfoxide reductase (Bos taurus, UniProt P54149).
T1 sequence (P54149 whole entry): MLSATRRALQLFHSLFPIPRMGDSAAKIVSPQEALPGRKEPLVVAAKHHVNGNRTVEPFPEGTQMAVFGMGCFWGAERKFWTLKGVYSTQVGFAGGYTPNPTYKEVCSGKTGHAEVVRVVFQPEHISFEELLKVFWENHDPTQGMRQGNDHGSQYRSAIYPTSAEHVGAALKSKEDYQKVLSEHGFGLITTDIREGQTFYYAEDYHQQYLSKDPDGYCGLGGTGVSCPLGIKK

Structures are written as SMILES. A value given as a limit tells only on which side of the number the result lay.

Turning to `CCc1noc(C)c1C(=O)Nc1nc(-c2ccc(F)cc2)c(C)s1` [3-ethyl-N-[4-(4-fluorophenyl)-5-methyl-1,3-thiazol-2-yl]-5-methyl-1,2-oxazole-4-carboxamide], the IC50 (in general, the concentration needed to halve the response being measured) was more than 155 µM.
